Assay results reported in patent publication US8748445B2, “Methods for treating glioma” (The UAB Research Foundation, priority 2004, dated 2014).
“Also recorded” adds a separate entry of the source.

Columns and labels:
glioma cells [1] = assay: rescue from (S)-4-CPG-induced cell death by caspase inhibitor; assay type: cell-based, human; conditions: Boc-D-FMK 100 μM; (S)-4-CPG 0.25 mM (FIG. 5D)
Procedure: Because an accumulation of ROS can lead to apoptotic cell death, the ability of system Xc inhibitors to induce apoptosis in glioma cells was examined. Exposure of D-54MG glioma cells to 1 mM (S)-4-CPG for 3 days caused 17% of the cell population to be positive for chromosomal DNA fragmentation, a classic manifestation of apoptosis (FIG. 5B). Often apoptosis is dependent on caspase activities, so it was determined whether the system Xc inhibitors induce activated caspase-3, which is the convergent enzyme in the caspase-dependent signaling cascade. […] In the continued presence of 0.5 mM (S)-4-CPG over a 5 d period, 60% of glioma cells died (FIG. 5E). With 1 mM sulfasalazine, 90% of cells died over the 5 d incubation (FIG. 5E).

[2] = test system: cortical neuronal cultures; assay: survival of cortical neuronal cultures; assay type: cell-based; conditions: (S)-4-CPG 0.25 mM and 0.5 mM (FIG. 3C); sulfasalazine data not shown
[3] = test system: glioma cell lines (D-54MG, U-87MG, U-251MG and STTG1) and a primary glioma culture (GBM62); assay: growth curves of glioma cells over 5 days; assay type: cell-based, human
Procedure: To examine whether the depletion of glutathione via inhibition of cystine uptake by system Xc affects the growth of glioma cells, growth curves for 4 glioma cell lines (D-54MG, U-87MG, U-251MG and STTG1) and a primary glioma culture (GBM62) were established.
In the presence of 0.25 mM (S)-4-CPG, growth of D-54MG cells indeed recovered by the addition of fourfold excess of cystine (FIG. 3E), but not with glutamate (FIG. 3D), the second substrate for system Xc.

D-54MG glioma cells [4] = assay: BrdU incorporation, ELISA-based assay; assay type: cell-based, human
Procedure: (§1) BrdU incorporation was measured using an ELISA-based assay. D-54MG cells were grown in the presence or absence of inhibitors for 24 hours and pulsed for 2 hours with BrdU. The cells were cultured for an additional 48 hours and the amount of incorporated BrdU was measured using alkaline phosphatase conjugated to anti-BrdU antibodies. […] The inhibition of DNA synthesis was also seen in immunocytochemical studies.

caspase-3 = assay: activated caspase-3 by Western blot analysis; assay type: cell-based, human; conditions: 0.5 mM; D-54MG cells (FIG. 5C)
Procedure: (§2) Because an accumulation of ROS can lead to apoptotic cell death, the ability of system Xc inhibitors to induce apoptosis in glioma cells was examined. […] Often apoptosis is dependent on caspase activities, so it was determined whether the system Xc inhibitors induce activated caspase-3, which is the convergent enzyme in the caspase-dependent signaling cascade. […] With 1 mM sulfasalazine, 90% of cells died over the 5 d incubation (FIG. 5E).

[5] = test system: primary astrocyte cultures; assay: growth of primary astrocyte cultures; assay type: cell-based; conditions: (S)-4-CPG 0.25 mM and 0.5 mM (FIG. 3C); sulfasalazine data not shown
D-54MG glioma cells [6] = assay: chromosomal DNA fragmentation (apoptosis) by flow cytometry; assay type: cell-based, human; conditions: 1 mM for 3 days; D-54MG (FIG. 5B)
Procedure: as §2

glioma cells [7] = assay: cell death by flow cytometry using the Live/Dead assay kit; assay type: cell-based, human
Procedure: as §2

D-54MG glioma cells [8] = assay: BrdU incorporation, immunocytochemical studies; assay type: cell-based, human; conditions: DAPI co-staining (FIG. 4B)
Procedure: as §1

glioma cells [9] = assay: cell cycle: total DNA content by flow cytometry (propidium iodide); assay type: cell-based, human; conditions: 0.5 mM (FIG. 4D)
Procedure: To test whether inhibition of cystine uptake affects a specific stage of the cell cycle, changes in total DNA content were measured using flow cytometry following treatment with 0.5 mM (S)-4-CPG and 0.5 mM sulfasalazine. Cells were fixed with para-formaldehyde and stained with the nuclear marker propidium iodide after incubation with drugs.

glioma cells [10] = assay: total intracellular glutathione content in glioma cells; assay type: cell-based, human
Procedure: To determine if limiting cystine uptake via system Xc reduces the total intracellular glutathione content (GSH and glutathione disulfide), intracellular glutathione concentrations were determined in the presence and absence of sulfasalazine.

system Xc = biological target: T1, system Xc (Homo sapiens, UniProt Q9UPY5); assay: 35S-labeled cystine uptake in glioma lines and primary glioma culture; assay type: cell-based; conditions: 5 mM L glutamate; data not shown
T1 construct: reduced ^35S-labeled cystine uptake by 60-80% in glioma lines (d-54MG, U-87MG and U-251MG) and a primary glioma culture (GBM62); endogenous in cells; host or cells: human glioma cell lines D-54MG, U-87MG, U-251MG and primary glioma culture GBM62
T1 sequence (Q9UPY5 1-501): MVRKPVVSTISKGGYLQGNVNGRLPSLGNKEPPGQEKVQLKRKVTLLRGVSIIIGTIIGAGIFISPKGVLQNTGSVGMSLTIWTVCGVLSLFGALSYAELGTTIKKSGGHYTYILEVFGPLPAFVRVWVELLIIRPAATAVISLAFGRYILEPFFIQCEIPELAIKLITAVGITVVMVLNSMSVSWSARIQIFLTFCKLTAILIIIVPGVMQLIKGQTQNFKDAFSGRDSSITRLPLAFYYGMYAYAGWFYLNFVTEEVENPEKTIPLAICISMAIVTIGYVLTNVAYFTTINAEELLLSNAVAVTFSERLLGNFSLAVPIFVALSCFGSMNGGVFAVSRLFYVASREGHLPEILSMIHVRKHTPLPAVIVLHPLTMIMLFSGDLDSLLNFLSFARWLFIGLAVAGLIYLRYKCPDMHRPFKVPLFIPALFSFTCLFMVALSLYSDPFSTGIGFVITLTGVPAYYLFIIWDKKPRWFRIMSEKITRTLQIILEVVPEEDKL
T1 sequence (P08195 1-529 partner): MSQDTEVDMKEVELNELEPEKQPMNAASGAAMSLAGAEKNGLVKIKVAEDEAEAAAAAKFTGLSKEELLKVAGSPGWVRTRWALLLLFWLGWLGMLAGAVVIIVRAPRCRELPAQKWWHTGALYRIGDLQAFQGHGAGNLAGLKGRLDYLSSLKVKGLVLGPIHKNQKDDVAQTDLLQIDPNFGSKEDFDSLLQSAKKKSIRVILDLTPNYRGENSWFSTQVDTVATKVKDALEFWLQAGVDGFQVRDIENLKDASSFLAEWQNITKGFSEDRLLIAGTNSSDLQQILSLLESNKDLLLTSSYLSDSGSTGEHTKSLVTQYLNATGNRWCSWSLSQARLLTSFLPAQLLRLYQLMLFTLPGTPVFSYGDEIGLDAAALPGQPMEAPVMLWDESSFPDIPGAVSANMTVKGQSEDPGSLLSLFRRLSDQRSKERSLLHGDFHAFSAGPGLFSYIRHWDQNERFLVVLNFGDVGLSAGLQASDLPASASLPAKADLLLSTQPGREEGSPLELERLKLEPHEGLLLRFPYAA
Excerpt: System Xc is a glutamate-cystine exchanger and can therefore be inhibited if the outward directed gradient for glutamate is eliminated by exposure to high concentrations of extracellular glutamate. The principal hypothesis in this study is that system Xc serves as a pipeline for cellular cystine uptake, with glutamate release being an obligatory by-product. Cystine uptake is the rate-limiting step for the synthesis of GSH, which is the main intracellular antioxidant that protects cells from oxidative stress and resulting reactive oxygen species (ROS) (Jefferies et al., 2003).

With `COC(=O)CC(NC(=O)OC(C)(C)C)C(=O)CF` [Boc-D-FMK, Boc Asp-fluoromethylketone] the “rescue from cell death induced by (S)-4-CPG” value (glioma cells [1]) was “a significant percentage of cells were rescued from cell death”.

In the case of `N[C@H](C(=O)O)c1ccc(C(=O)O)cc1` [(S)-4-CPG, (S)-4-carboxyphenylglycine], the “survival/growth of cortical neuronal cultures” value [2] is reported as “negligible impact; also recorded: Neither (S)-4-CPG (FIG. 3C) nor sulfasalazine (data not shown) affected”, the “growth of glioma cells” value ([3]; 5 days, 0.1 and 0.25 mM (S)-4-CPG, 0.25 and 0.5 mM sulfasalazine, all glioma cell lines and GBM62 (FIGS. 3A, 3B)) is reported as “dose-dependent growth inhibitions” and the “reduction of incorporation of BrdU into chromosomal DNA” value (D-54MG glioma cells [4]; 0.25 mM, within 48 hours, D-54MG (FIG. 4A)) is reported as 50%. For the same compound, the “reduction of BrdU incorporation relative to 0.25 mM” value (D-54MG glioma cells [4]; 0.5 mM, D-54MG (FIG. 4A)) was “somewhat larger reduction”, the “activated form of caspase-3” value (caspase-3) was “increased the activated form of caspase-3” and the “growth of primary astrocyte cultures” value [5] was “negligible impact; also recorded: Neither (S)-4-CPG (FIG. 3C) nor sulfasalazine (data not shown) affected”. For the same compound, the “cell population positive for chromosomal DNA fragmentation” value (D-54MG glioma cells [6]) was 17%, the glioma cells died (glioma cells [7]; 0.5 mM, continued presence over a 5 d period (FIG. 5E)) was 60% and the “incorporation of BrdU, immunocytochemistry” value (D-54MG glioma cells [8]) was “virtually abolished incorporation of BrdU”. The “cell cycle distribution (total DNA content)” value (glioma cells [9]) was “a reduction of cells in G2 phase and an increase in cells in S phase” and the intracellular glutathione concentration (glioma cells [10]; 0.25 mM, glioma cells D-54MG, U-87MG, U-251MG and primary glioma culture GBM64 (FIG. 2F)) was “depleted intracellular glutathione concentration”.

For `CCOC(=O)CNC(=O)[C@H](CS)NC(=O)CC[C@H](N)C(=O)O` [glutathione ethyl ester], the “D-54MG glioma cell growth on coincubation” value ([3]; after treatment with 0.4 mM sulfasalazine or (S)-4-CPG, GSHest 1 mM) was “completely restored D-54MG glioma cell growth” and the “intracellular glutathione levels on coincubation” value (glioma cells [10]; sulfasalazine (0.4 mM) treated D-54MG glioma cells (FIG. 6A)) was “replenished intracellular glutathione levels”.

With `N[C@@H](CCC(=O)O)C(=O)O` [glutamate] the “reversal of growth inhibition by (S)-4-CPG” value ([3]; 1 mM glutamate with 0.25 mM (S)-4-CPG (FIG. 3D)) was “failed to overcome the inhibitory effect”, the “competitive inhibition of cystine uptake compared with both drugs” value (system Xc) was “comparable” and the “restoration of intracellular glutathione levels” value (glioma cells [10]; L-glutamate with system Xc inhibitor (FIG. 3D)) was “failed to restore intracellular glutathione levels”.

For `N[C@@H](CSSC[C@H](N)C(=O)O)C(=O)O` [cystine], the “growth of D-54MG cells in the presence of (S)-4-CPG” value ([3]; 0.25 mM (S)-4-CPG plus fourfold excess of cystine (FIG. 3E)) was “recovered”, the “reversal of inhibition of BrdU incorporation by exogenous cystine” value (D-54MG glioma cells [4]; inhibition caused by 0.5 mM (S)-4-CPG and 0.5 mM sulfasalazine (FIG. 4C)) was “able to reverse the inhibition of BrdU incorporation” and the “prevention of cell death induced by (S)-4-CPG” value (glioma cells [7]; 0.5 mM (S)-4-CPG with 1 mM cystine (FIG. 5E)) was “completely prevented”.

For vitamin E, the “growth of D-54MG glioma cells with free radical scavenger” value ([3]; in the presence of (S)-4-CPG (FIG. 5A)) was “partially restored”.
